One series has as its target T1, mouse TGR5 receptor (Mus musculus, UniProt Q80SS6).
T1 construct: host or cells: HEK293-EBNA (293 c18, ATCC CRL10852)
T1 sequence (Q80SS6 1-329): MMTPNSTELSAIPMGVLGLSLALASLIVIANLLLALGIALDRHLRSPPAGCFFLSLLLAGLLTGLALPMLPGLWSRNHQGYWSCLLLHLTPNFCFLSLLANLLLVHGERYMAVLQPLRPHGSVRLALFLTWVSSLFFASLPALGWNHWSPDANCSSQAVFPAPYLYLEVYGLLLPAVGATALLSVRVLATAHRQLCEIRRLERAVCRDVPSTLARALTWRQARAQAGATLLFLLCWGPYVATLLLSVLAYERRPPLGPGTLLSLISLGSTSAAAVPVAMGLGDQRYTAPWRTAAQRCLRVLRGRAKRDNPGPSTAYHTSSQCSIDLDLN
Put plainly: Mouse TGR5 HTRF cAMP production assay (HEK293-EBNA cells, Cisbio cAMP HiRange kit). The format is cell-based. The following applies: HEK293-EBNA cells overexpressing mouse TGR5, HTRF cAMP assay. A digest of the protocol: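 HEK293-EBNA cells stably expressing mouse TGR5 (episomal vector) were suspended in serum-free DMEM with 500 μM IBMX and exposed to 12-point half-log compound dilutions for 1 h at room temperature. cAMP was detected by HTRF (d2-cAMP/anti-cAMP cryptate, 1 h, room temperature), giving EC50 from duplicates.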
On the technique in general: Time-resolved FRET reads energy transfer from a long-lived donor to a nearby acceptor.

Series [1] is described as follows: Pharmacokinetic profile in mice after oral gavage. Format: in vivo, mouse. The following applies: mouse; fasted male Hilltop mice, 10 mg/kg oral gavage, plasma; read-out: Cmax. As for the experimental part: Pharmacokinetic Profile in Mice
In this series of studies, the pharmacokinetic profile characteristics of compounds of the present invention were evaluated. The plasma concentration levels of the compounds were monitored in the blood stream (i.e., plasma) after oral gavage using Cmax, and area under the curve (AUC).
8 week old male Hilltop mice were fasted overnight. Animals were randomized into groups (n=9) by body weight. Mice were dosed with 10 mg/kg compound (in 20% PEG400/80% 0.5% carboxymethylcellulose (medium viscosity)+0.25% Tween-80) at a volume of […] through oral gavage. Blood was collected via orbital bleeding at 0, 0.25, 0.5, 1, 2, and 4 h post-dose, with no one mouse having more than 3 blood draws. Blood was collected in EDTA coated tubes. Samples were stored at −20° C. until analysis.
Quantitation of compound levels in plasma was accomplished by LC-MS/MS analysis. Standard curve and quality control samples were prepared in male CD-1 mouse plasma containing EDTA K^2+ as an anticoagulant at final concentrations ranging from 500 to 0.1 ng/mL. The plasma samples, calibration curve standards, and quality control samples were prepared in an identical method in a 96-well deep plate (1 mL) with a quenching solution (1:1 mixed acetonitrile:methanol containing the internal standard Reserpine @ 400 ng/mL). Low volume samples were supplemented with CD-1 mouse plasma. The plate was mixed on multi-tube vortexer for 1 min and centrifuged at 4000 rpm for 30 min at 4° C. (Sorvall® Super T21) before LC-MS/MS analysis. LC conditions were developed and optimized based on each compound as needed. The outlet of the column was coupled to AB Sciex 4000 QTrap Mass Spectrometer (AB Sciex, Brugg Switzerland). Detection was carried out using multiple reaction monitoring mode with positive-ion detection focusing. The pharmacokinetic parameters were derived from the plasma-time data and calculated using the standard non-compartmental method with WinNonlin (Pharsight, Mountain View, Calif.) or PK Solver (Comp. Meth. Prog. Biomed. (2010), 99, 306-314).
Values reported are the mean plasma concentration of three mice. […]

The target in another series is T2, human TGR5 receptor (Homo sapiens, UniProt Q8TDU6).
T2 construct: host or cells: CHO-K1 (hTGR5-CHO)
T2 sequence (Q8TDU6 1-330): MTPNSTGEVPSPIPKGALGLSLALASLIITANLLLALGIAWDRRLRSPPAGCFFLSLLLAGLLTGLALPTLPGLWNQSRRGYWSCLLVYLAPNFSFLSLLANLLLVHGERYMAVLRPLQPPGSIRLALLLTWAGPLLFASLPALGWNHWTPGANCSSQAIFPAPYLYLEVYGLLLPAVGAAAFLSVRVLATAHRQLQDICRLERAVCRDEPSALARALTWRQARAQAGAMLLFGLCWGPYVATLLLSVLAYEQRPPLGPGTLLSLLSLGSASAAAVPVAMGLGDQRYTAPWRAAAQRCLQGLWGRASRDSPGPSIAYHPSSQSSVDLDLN
Kind of series: Human TGR5 cAMP production assay (hTGR5-CHO cells, DiscoveRx cAMP XS+ kit). Format: cell-based. The following applies: luminescent cAMP assay, read-out: Human TGR5 Lum. cAMP Activity (EC50). In outline:
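CHO-K1 cells stably expressing hTGR5, in PBS with IBMX and cAMP antibody, treated with half-log compound dilutions for 1 h at room temperature. cAMP measured by enzyme-fragment complementation luminescence after overnight detection; EC50 values reported.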
(In general: Cyclic AMP is a second messenger, typically raised through Gs and lowered through Gi signalling.)

Where only a bound is given, the exact number is not on record here.

As usually defined, the EC50 is the concentration needed to bring the measured effect to its halfway point. What is called Cmax is the highest concentration seen after dosing. On to `N=C(N)NCCNC(=O)CCCC1CCN(c2cc(N3CCC[C@H]3C(=O)NCCc3ccc(C(F)(F)F)cc3)nc(C(F)(F)F)n2)CC1` [Compound 131, (S)-1-(6-(4-(4-((2-guanidinoethyl)-amino)-4-oxobutyl)piperidin-1-yl)-2-(trifluoromethyl)pyrimidin-4-yl)-N-(4-(trifluoromethyl)phenethyl)pyrrolidine-2-carboxamide], for which the EC50 at mouse TGR5 receptor and on human TGR5 receptor was less than 100 nM throughout. The Cmax in series [1] was 12 ng/mL.

Turning to `O=C(CCCC1CCN(c2cc(N3CCC[C@H]3C(=O)NCCc3ccc(Cl)c(Cl)c3)nc(C(F)(F)F)n2)CC1)NCS(=O)(=O)O` [Compound 136, (S)-(4-(1-(6-(2-((3,4-dichlorophenethyl)carbamoyl)pyrrolidin-1-yl)-2-(trifluoromethyl)pyrimidin-4-yl)piperidin-4-yl)butanamido)methanesulfonic acid], the EC50 on mouse TGR5 receptor and at human TGR5 receptor was less than 100 nM in each case. Further, in series [1], the Cmax was determined as 59 ng/mL.

In the case of `N#Cc1ccc(CCNC(=O)[C@@H]2CCN2c2cc(N3CCC(CCNc4c(NCCC(=O)O)c(=O)c4=O)CC3)nc(C(F)(F)F)n2)cc1` [Compound 301, (S)-3-((2-((2-(1-(6-(2-((4-cyanophenethyl)carbamoyl)azetidin-1-yl)-2-(trifluoromethyl)pyrimidin-4-yl)piperidin-4-yl)ethyl)amino)-3,4-dioxocyclobut-1-en-1-yl)amino)propanoic acid], the EC50 at mouse TGR5 receptor and at human TGR5 receptor was less than 100 nM each time. In series [1], the Cmax came out at 2.6 ng/mL.

Consider `N#Cc1ccc(CCNC(=O)[C@@H]2CCCN2c2cc(N3CCC(CCCC(=O)N[C@H](CC(=O)O)C(=O)O)CC3)nc(C(F)(F)F)n2)cc1` [Compound 75, (R)-2-(4-(1-(6-((S)-2-((4-cyanophenethyl)carbamoyl)pyrrolidin-1-yl)-2-(trifluoromethyl)pyrimidin-4-yl)piperidin-4-yl)butanamido)succinic acid], for which the EC50 on mouse TGR5 receptor and at human TGR5 receptor was less than 100 nM in each case. Further, the maximum concentration (Cmax) in series [1] was found to be 22 ng/mL.

For the molecule `N#Cc1ccc(CCNC(=O)[C@@H]2CCCN2c2cc(N3CCC(CCNS(=O)(=O)CCNc4ncc(C(=O)O)cn4)CC3)nc(C(F)(F)F)n2)cc1` [Compound 117, (S)-2-((2-(N-(2-(1-(6-(2-((4-cyanophenethyl)carbamoyl)pyrrolidin-1-yl)-2-(trifluoromethyl)pyrimidin-4-yl)piperidin-4-yl)ethyl)sulfamoyl)ethyl)amino)-pyrimidine-5-carboxylic acid], the EC50 at mouse TGR5 receptor and at human TGR5 receptor was less than 100 nM throughout. Moreover, the Cmax in series [1] worked out at 6.5 ng/mL.

In the case of `O=C(CCCC1CCN(c2cc(N3CCC[C@H]3C(=O)NCCc3ccc(C(F)(F)F)cc3)nc(C(F)(F)F)n2)CC1)NCCNc1cc(N(CCO)CCO)ncn1` [Compound 111], the EC50 on mouse TGR5 receptor and on human TGR5 receptor was less than 100 nM throughout. The Cmax in series [1] is 5.3 ng/mL.

For the molecule `N#Cc1ccc(CCNC(=O)[C@@H]2CCCN2c2cc(N3CCC(CCCNC(=O)NCCS(=O)(=O)O)CC3)nc(C(F)(F)F)n2)cc1` [Compound 119, (S)-2-(3-(3-(1-(6-(2-((4-cyanophenethyl)carbamoyl)pyrrolidin-1-yl)-2-(trifluoromethyl)pyrimidin-4-yl)piperidin-4-yl)propyl)ureido)-ethanesulfonic acid], the EC50 on mouse TGR5 receptor and on human TGR5 receptor was less than 100 nM throughout. In addition, the Cmax in series [1] turned out to be 16 ng/mL.

Consider `N=C(N)NCCC[C@H](NC(=O)CCCC1CCN(c2cc(N3CCC[C@H]3C(=O)NCCc3ccc(C(F)(F)F)cc3)nc(C(F)(F)F)n2)CC1)C(=O)O` [Compound 74, (S)-5-guanidino-2-(4-(1-(2-(trifluoromethyl)-6-((S)-2-((4-(trifluoromethyl)phenethyl)carbamoyl)pyrrolidin-1-yl)pyrimidin-4-yl)piperidin-4-yl)butanamido)pentanoic acid], for which the EC50 on mouse TGR5 receptor and at human TGR5 receptor was less than 100 nM throughout. Moreover, in series [1], the Cmax was 3.6 ng/mL.

Turning to `N#Cc1ccc(CCNC(=O)[C@@H]2CCCN2c2cc(N3CCC(OCC#CCO)CC3)nc(C(F)(F)F)n2)cc1` [Compound 26], the EC50 on mouse TGR5 receptor and on human TGR5 receptor was less than 100 nM each time. In series [1], the Cmax was found to be 55 ng/mL.

As for `O=C(O)CN1CCC(CCCC2CCN(c3cc(N4CC[C@H]4C(=O)NCCc4ccc(C(F)(F)F)cc4)nc(C(F)(F)F)n3)CC2)CC1` [Compound 281, (S)-2-(4-(3-(1-(2-(trifluoromethyl)-6-(2-((4-(trifluoromethyl)phenethyl)carbamoyl)-azetidin-1-yl)pyrimidin-4-yl)piperidin-4-yl)propyl)piperidin-1-yl)acetic acid], the 50% effective concentration (EC50) at mouse TGR5 receptor and on human TGR5 receptor was less than 100 nM in each case. For the same molecule, the Cmax in series [1] was 92 ng/mL.

Turning to `O=C(CCCC1CCN(c2cc(N3CCC[C@H]3C(=O)NCCc3ccc(Cl)cc3)nc(C(F)(F)F)n2)CC1)NCS(=O)(=O)O` [Compound 137, (S)-(4-(1-(6-(2-((4-chlorophenethyl)-carbamoyl)pyrrolidin-1-yl)-2-(trifluoromethyl)pyrimidin-4-yl)-piperidin-4-yl)butanamido)-methanesulfonic acid], the EC50 at mouse TGR5 receptor and at human TGR5 receptor was less than 100 nM in each case. In addition, the Cmax in series [1] was 22 ng/mL.

As for `N#Cc1ccc(CCNC(=O)[C@@H]2CCCN2c2cc(N3CCC(CCCNC(=O)NCS(=O)(=O)O)CC3)nc(C(F)(F)F)n2)cc1` [Compound 118, (S)-(3-(3-(1-(6-(2-((4-cyanophenethyl)carbamoyl)pyrrolidin-1-yl)-2-(trifluoromethyl)pyrimidin-4-yl)piperidin-4-yl)propyl)ureido)methanesulfonic acid], the EC50 at mouse TGR5 receptor and at human TGR5 receptor was less than 100 nM in each case. Moreover, in series [1], the Cmax is 7.9 ng/mL.

As to `N#Cc1ccc(CCNC(=O)[C@@H]2CCCN2c2cc(N3CCC(CCCC(=O)NCCOCCOCCNC(=N)N)CC3)nc(C(F)(F)F)n2)cc1` [Compound 127, (S)-1-(6-(4-(1-amino-1-imino-12-oxo-5,8-dioxa-2,11-diazapentadecan-15-yl)piperidin-1-yl)-2-(trifluoromethyl)-pyrimidin-4-yl)-N-(4-cyanophenethyl)-pyrrolidine-2-carboxamide], the EC50 on mouse TGR5 receptor and at human TGR5 receptor was less than 100 nM in each case. In addition, the Cmax in series [1] is 11 ng/mL.

On to `N=C(N)NCCS(=O)(=O)N1CCN(c2cc(N3CCC[C@@H](C(=O)NCCc4ccc(C(F)(F)F)cc4)C3)nc(C(F)(F)F)n2)CC1` [Compound 349, (R)-1-(6-(4-((2-guanidinoethyl)sulfonyl)piperazin-1-yl)-2-(trifluoromethyl)-pyrimidin-4-yl)-N-(4-(trifluoromethyl)phenethyl)piperidine-3-carboxamide], for which the EC50 at mouse TGR5 receptor and on human TGR5 receptor was less than 100 nM in each case. In series [1], the Cmax came to 1.7 ng/mL.

For the molecule `N#Cc1ccc(CCNC(=O)[C@@H]2CCCN2c2cc(N3CCC(CCNC(=O)NCS(=O)(=O)O)CC3)nc(C(F)(F)F)n2)cc1` [Compound 79, (S)-(3-(2-(1-(6-(2-((4-cyanophenethyl)carbamoyl)pyrrolidin-1-yl)-2-(trifluoromethyl)pyrimidin-4-yl)piperidin-4-yl)ethyl)ureido)methanesulfonic acid], the EC50 at mouse TGR5 receptor and on human TGR5 receptor was less than 100 nM each time. For the same molecule, the Cmax in series [1] came out at 15 ng/mL.
